The subject of this test is SW480. The test is described as follows: drug sensitivity score (DSS, integrated dose-response area); higher = more sensitive (stronger viability reduction); extreme values may be limits of the assay. The essentials: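 SW480 cells stably carrying doxycycline-inducible control or SND1-targeting shRNA were treated with 0.1 µg/mL doxycycline for 7 days. Cells were then seeded at 1000 per well into 384-well plates containing 525 commercially available small-molecule inhibitors at five concentrations, and viability was measured with CellTiter-Glo after 72 h. The drug sensitivity score integrates the area under a fitted non-linear dose–response model.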

Setting [1] is: shRNA: SND1 shRNA1 (SND1 silenced).
Setting [2] is: shRNA: SND1 shRNA2 (SND1 silenced).
[3] abbreviates: shRNA: control shRNA (non-targeting).

`O=C(O)CC[C@H]1CC[C@@](c2cc(F)ccc2F)(S(=O)(=O)c2ccc(Cl)cc2)CC1` [MK-0752]: the drug sensitivity score came out at 0.7 DSS under setting [1], 0 DSS under setting [2] and 0 DSS under setting [3].

In the case of `CNNCc1ccc(C(=O)NC(C)C)cc1` [Procarbazine], the drug sensitivity score was determined as 0 DSS under setting [1], 0 DSS under setting [2] and 0 DSS under setting [3].

Regarding `CC(=O)OC[C@H]1O[C@@H]([S-])[C@H](OC(C)=O)[C@@H](OC(C)=O)[C@@H]1OC(C)=O.CCP(CC)CC.[Au+]` [Auranofin], the drug sensitivity score was determined as 6.2 DSS under setting [1], 8.8 DSS under setting [2] and 8.7 DSS under setting [3].

On to `CCN(CC)CCNC(=O)c1c(C)[nH]c(/C=C2\C(=O)Nc3ccc(F)cc32)c1C` [Sunitinib], for which the drug sensitivity score by setting is: under setting [1], 0.3 DSS; under setting [2], 0.1 DSS; under setting [3], 0.7 DSS.

Consider `CN(C)CCN1C(=O)c2cccc3cc(N)cc(c23)C1=O` [Amonafide], for which the drug sensitivity score reads like this: under setting [1], 8.8 DSS; under setting [2], 5.2 DSS; under setting [3], 7.8 DSS.

`Cc1cc(C)c(/C=C2\C(=O)Nc3ccccc32)[nH]1` [Semaxanib]: the drug sensitivity score under setting [1] is 0 DSS, the drug sensitivity score under setting [2] worked out at 0 DSS and the drug sensitivity score under setting [3] was 0.6 DSS.

Molecule `NC(=S)N/N=C/c1ncccc1N` [Triapine] came in with a drug sensitivity score under setting [1] of 2.8 DSS and a drug sensitivity score under setting [3] of 2.4 DSS.

Take `CC(C)C[C@H](NC(=O)[C@H](CCc1ccccc1)NC(=O)CN1CCOCC1)C(=O)N[C@@H](Cc1ccccc1)C(=O)N[C@@H](CC(C)C)C(=O)[C@@]1(C)CO1` [Carfilzomib]: the drug sensitivity score under setting [1] was determined as 22.9 DSS, the drug sensitivity score under setting [2] stood at 24.5 DSS and the drug sensitivity score under setting [3] worked out at 24.6 DSS.

As for `CCNC(=O)C[C@@H]1N=C(c2ccc(Cl)cc2)c2cc(OC)ccc2-n2c(C)nnc21`, the drug sensitivity score reads like this: under setting [1], 2.7 DSS; under setting [2], 0 DSS; under setting [3], 0.6 DSS.

Regarding `COc1c(C)cnc(Cn2cnc3c(Cl)nc(N)nc32)c1C` [BIIB021], the drug sensitivity score reads like this: under setting [1], 17.4 DSS; under setting [2], 18.4 DSS; under setting [3], 17.8 DSS.

Regarding `COc1cc(Nc2ncc(F)c(Nc3ccc4c(n3)N(COP(=O)(O)O)C(=O)C(C)(C)O4)n2)cc(OC)c1OC` [Fostamatinib], the drug sensitivity score is, setting by setting: under setting [1], 3.4 DSS; under setting [3], 2.6 DSS.

As to `Cc1nc(Nc2n[nH]c3c2CN(C(=O)N[C@H](CN(C)C)c2ccccc2)C3(C)C)c2sccc2n1`, the drug sensitivity score reads like this: under setting [1], 14.9 DSS; under setting [2], 13.7 DSS; under setting [3], 16.5 DSS.

As to `CCCCCCCCc1ccc(CCC(N)(CO)CO)cc1` [Fingolimod], the drug sensitivity score under setting [1] was found to be 8.5 DSS, the drug sensitivity score under setting [2] stood at 8.9 DSS and the drug sensitivity score under setting [3] stood at 6.6 DSS.

`CC(C)(C)NC(=O)[C@H]1CC[C@H]2[C@@H]3CC[C@H]4NC(=O)C=C[C@]4(C)[C@H]3CC[C@]12C` [Finasteride]: the drug sensitivity score by setting is: under setting [1], 0 DSS; under setting [2], 0 DSS; under setting [3], 0.4 DSS.

On to `O=C1NC(=O)[C@@H](c2cn3c4c(cccc24)CCC3)[C@@H]1c1c[nH]c2ccccc12` [Tivantinib], for which the drug sensitivity score runs as follows: under setting [1], 6.4 DSS; under setting [2], 4 DSS; under setting [3], 5.4 DSS.

Turning to `CC(C)C[C@@H](C(=O)N[C@H](C(=O)OC1CCCC1)c1ccccc1)[C@H](O)C(=O)NO` [Tosedostat], the drug sensitivity score is, setting by setting: under setting [1], 4.4 DSS; under setting [2], 3.2 DSS; under setting [3], 3.2 DSS.

For the molecule `N#Cc1ccc(COC[C@H]2O[C@@H](n3c(NCc4ccc(Cl)c(Cl)c4)nc4c(N)ncnc43)[C@H](O)[C@@H]2O)cc1`, the drug sensitivity score by setting is: under setting [1], 0 DSS; under setting [2], 0 DSS; under setting [3], 0.1 DSS.

In turn, `CC[C@H](Nc1ncnc2[nH]cnc12)c1nc2cccc(F)c2c(=O)n1-c1ccccc1` [Idelalisib] gave a drug sensitivity score under setting [1] of 2.3 DSS, a drug sensitivity score under setting [2] of 4.6 DSS and a drug sensitivity score under setting [3] of 0.7 DSS.

On to `NC(=O)Nc1sc(-c2ccc(F)cc2)cc1C(N)=O` [TPCA-1], for which the drug sensitivity score reads like this: under setting [1], 3.8 DSS; under setting [3], 2.3 DSS.

In turn, `Cc1ccc2nc(CN(CCN(Cc3nc4ccc(C)cc4[nH]3)Cc3nc4ccc(C)cc4[nH]3)Cc3nc4ccc(C)cc4[nH]3)[nH]c2c1` came in with a drug sensitivity score under setting [1] of 1.5 DSS, a drug sensitivity score under setting [2] of 1.3 DSS and a drug sensitivity score under setting [3] of 2.1 DSS.

Consider `CCOc1cc2ncc(C#N)c(Nc3ccc(OCc4ccccn4)c(Cl)c3)c2cc1NC(=O)/C=C/CN(C)C` [Neratinib], for which the drug sensitivity score is, setting by setting: under setting [1], 3.9 DSS; under setting [2], 4.3 DSS; under setting [3], 4 DSS.

As to `CCN(CC)CCCC(C)Nc1c2ccc(Cl)cc2nc2ccc(OC)cc12` (configuration not stated) [Mepacrine], the drug sensitivity score reads like this: under setting [1], 21.5 DSS; under setting [3], 21.5 DSS.

Consider `CC1=C(/C=C/C(C)=C/C=C/C(C)=C/C(=O)O)C(C)(C)CCC1` [Tretinoin], for which the drug sensitivity score reads like this: under setting [1], 0 DSS; under setting [2], 0 DSS; under setting [3], 0 DSS.

`CCN(CC)CCCC(C)Nc1ccnc2cc(Cl)ccc12` (configuration not stated) [Chloroquine] came in with a drug sensitivity score under setting [1] of 14.9 DSS and a drug sensitivity score under setting [3] of 11.6 DSS.

Consider `Cc1cc(Nc2cc(CN3CCOCC3)c3nc(C)c(Cc4ccc(Cl)cc4F)n3n2)n[nH]1` [Gandotinib], for which the drug sensitivity score is 6.9 DSS under setting [1], 4.1 DSS under setting [2] and 7 DSS under setting [3].

For the molecule `CCS(=O)(=O)N1CC(CC#N)(n2cc(-c3ncnc4[nH]ccc34)cn2)C1` [Baricitinib], the drug sensitivity score by setting is: under setting [1], 0 DSS; under setting [2], 0.3 DSS; under setting [3], 1 DSS.

Turning to `Clc1ccc(Nc2nnc(Cc3ccncc3)c3ccccc23)cc1` [Vatalanib], the drug sensitivity score by setting is: under setting [1], 1.8 DSS; under setting [2], 6.5 DSS; under setting [3], 2 DSS.

`Cc1nc(C(=O)NCC(=O)O)c(O)c2ccc(Oc3ccccc3)cc12` [FG-4592]: the drug sensitivity score stood at 4.8 DSS under setting [1], 1 DSS under setting [2] and 2.5 DSS under setting [3].

For the molecule `CN(Cc1cnc2nc(N)nc(N)c2n1)c1ccc(C(=O)N[C@@H](CCC(=O)O)C(=O)O)cc1` [Methotrexate], the drug sensitivity score came to 11.7 DSS under setting [1] and 7.4 DSS under setting [3].

Consider `CN1CCc2c(c3ccccc3n2Cc2ccc(C(=O)NO)cc2)C1` [Tubastatin A], for which the drug sensitivity score runs as follows: under setting [1], 4.3 DSS; under setting [2], 5 DSS; under setting [3], 6.4 DSS.

For the molecule `CC(C)N(CCCNC(=O)Nc1ccc(C(C)(C)C)cc1)C[C@H]1O[C@@H](n2cc(Br)c3c(N)ncnc32)[C@H](O)[C@@H]1O` [SGC0946], the drug sensitivity score is 4.6 DSS under setting [1], 1.3 DSS under setting [2] and 4.3 DSS under setting [3].

As for `Nc1ncn([C@@H]2O[C@H](CO)[C@@H](O)[C@H]2O)c(=O)n1` [Azacitidine], the drug sensitivity score is, setting by setting: under setting [1], 3.7 DSS; under setting [2], 4.4 DSS; under setting [3], 2.9 DSS.

With `Cc1nc(=O)c2cc(CN(C)c3ccc(C(=O)N[C@@H](CCC(=O)O)C(=O)O)s3)ccc2[nH]1` [Raltitrexed], the drug sensitivity score runs as follows: under setting [1], 5.2 DSS; under setting [2], 0 DSS; under setting [3], 4.8 DSS.

`Cc1cc(C(=O)NOCCO)c(Nc2ccc(I)cc2F)n(C)c1=O` [AZD-8330] registered a drug sensitivity score under setting [1] of 32.4 DSS, a drug sensitivity score under setting [2] of 22.9 DSS and a drug sensitivity score under setting [3] of 18.4 DSS.

Take `CC1(C)CCC(c2ccc(Cl)cc2)=C(CN2CCN(c3ccc(C(=O)NS(=O)(=O)c4ccc(N[C@H](CCN5CCOCC5)CSc5ccccc5)c(S(=O)(=O)C(F)(F)F)c4)cc3)CC2)C1` [Navitoclax]: the drug sensitivity score runs as follows: under setting [1], 7.4 DSS; under setting [2], 5.6 DSS; under setting [3], 0 DSS.

As for `COc1cc2c(Oc3ccc4[nH]c(C)cc4c3F)ncnc2cc1OCCCN1CCCC1` [Cediranib], the drug sensitivity score is 6.1 DSS under setting [1], 5.1 DSS under setting [2] and 4.3 DSS under setting [3].

On to `COc1ccc(Cl)c(Nc2nc3ccccc3nc2NS(=O)(=O)c2cccc(NC(=O)C(C)(C)N)c2)c1` [Pilaralisib], for which the drug sensitivity score is 0.8 DSS under setting [1], 0.7 DSS under setting [2] and 0.8 DSS under setting [3].

Turning to `CC(C)Oc1cc(Nc2nc(N[C@@H](C)c3ccc(F)cn3)ncc2Cl)n[nH]1` [AZ-23], the drug sensitivity score stood at 3.1 DSS under setting [1], 1.9 DSS under setting [2] and 4.5 DSS under setting [3].

On to `CO[C@@H](C(=O)N1Cc2[nH]nc(NC(=O)c3ccc(N4CCN(C)CC4)cc3)c2C1)c1ccccc1` [Danusertib], for which the drug sensitivity score is 6.5 DSS under setting [1], 4.7 DSS under setting [2] and 4.9 DSS under setting [3].

For the molecule `CNC(=O)c1cc(Oc2ccc(NC(=O)Nc3ccc(Cl)c(C(F)(F)F)c3)cc2)ccn1` [Sorafenib], the drug sensitivity score runs as follows: under setting [1], 0 DSS; under setting [2], 0 DSS; under setting [3], 0 DSS.

`O=S(=O)(c1cccc2cnccc12)N1CCCNCC1` [Fasudil] came in with a drug sensitivity score under setting [1] of 3.1 DSS, a drug sensitivity score under setting [2] of 3 DSS and a drug sensitivity score under setting [3] of 6 DSS.

As to `C[C@H](Nc1ncnc2nc[nH]c12)c1cc2cccc(Cl)c2c(=O)n1-c1ccccc1` [Duvelisib], the drug sensitivity score stood at 0.6 DSS under setting [1], 3 DSS under setting [2] and 5.5 DSS under setting [3].

As to `Cc1cc(Nc2cc(N3CCN(C)CC3)nc(Sc3ccc(NC(=O)C4CC4)cc3)n2)n[nH]1` [Tozasertib], the drug sensitivity score is 8.6 DSS under setting [1] and 4.8 DSS under setting [3].
